This passage reports Activity results from ChEMBL document CHEMBL1157944, “Phytotoxic withanolides from Jaborosa rotacea” (J Nat Prod, 2006).

The source made the active and inactive calls. The rule behind the calls is not given here.

Format in all cases: functional, organism-based
The test system of assay [1] is Phalaris canariensis. In words: Stimulation of radicle growth in Phalaris canariensis at 50 ug/ml.
The subject of assay [2] is Phalaris canariensis. Put plainly: Phytotoxicity against Phalaris canariensis assessed as inhibition of radicle growth at 50 ug/ml.
Assay [3] relates to Lactuca sativa. Put plainly: Phytotoxicity against Lactuca sativa assessed as inhibition of emergence rate index at 50 ug/ml.
Assay [4] concerns Lactuca sativa. Put plainly: Phytotoxicity against Lactuca sativa assessed as inhibition of radicle growth at 50 ug/ml.
In assay [5] the test system is Lactuca sativa. In words: Phytotoxicity against Lactuca sativa assessed as inhibition of germination at 50 ug/ml.

As to `CC1=C(C)[C@H]2C(=O)[C@@H](C)[C@]3(O)CC[C@H]4[C@@H]5C[C@@H](O)[C@@]6(O)CC=CC(=O)[C@]6(C)[C@H]5C[C@@]2(OC1=O)[C@@]43C`, the result in assay [1] was Active.

On to `CC1=C(C)C(=O)O[C@]2(C1)O[C@@]1(O)C[C@H]3[C@@H](C[C@@H](O)[C@@]4(Cl)CC=CC(=O)[C@]34C)[C@@H]3CC[C@@](O)([C@@H]2C)[C@]31C`, for which, in assay [2], the result was Active.

Take `CC1=C(C)C(=O)O[C@]2(C1)O[C@@]1(O)C[C@H]3[C@@H](C[C@@H](O)C4=CC=CC(=O)[C@@]43C)[C@@H]3CC[C@@](O)([C@@H]2C)[C@]31C`: in assay [1], the result was Active.

As for `CC1=C(C)C(=O)O[C@]2(C1)O[C@@]1(O)C[C@H]3[C@@H](C[C@H](Cl)[C@]4(O)CC=CC(=O)[C@]34C)[C@@H]3CC[C@@](O)([C@@H]2C)[C@]31C`, the outcome in assay [3], in assay [4] and in assay [5] was Active.
